Results on 10 molecules are retold here after patent publication US12383533B2 (Frost Biologic, Inc., priority 2014, dated 2025).

The test system of assay [1] is PC3 cells. In words: Cell Viability Assay (ATPlite 1step), PC3. It is filed as cell-based. The settings on record: Homo sapiens, PC-3, 72 hours; for percent inhibition of cell viability at 4 µM: PC3, 4 uM compound, read-out: Cell Viability % inhibition PC3 (4 uM Cpd); for percent inhibition of cell viability at 20 µM: PC3, 20 uM compound, read-out: Cell Viability % inhibition PC3 (20 uM Cpd). The procedure:
(§1) Cell Viability Assay Protocol
(§2) Cells were trypsinized, counted, and re-seeded into a 384-well tissue culture plate at 1000 cells per well in […] media. Cells were incubated at 37° C. in an atmosphere of 5% CO2 for 24 hours. Experimental compounds, initially dissolved in DMSO and diluted further in media were added to the wells and incubated for 72 hours. Cell viability was measured using the ATPlite 1step Luminescence Detection Assay system (Perkin Elmer) as described in the Assay kit instructions.
(§3) Cell Culture Lines and Media: (1) A2780 cells were cultured in RPMI media with 10% FBS and 1% antibiotics. Cells were typically split every 3-5 days at a 1:10 dilution; (2) PC3 cells were cultured in RPMI media with 10% FBS and 1% antibiotics. Cells were typically split every 3-5 days at a 1:4 dilution; (3) MCF-7 cells were grown in K-12F media with 10% FBS and 1% antibiotics. Cells were typically split every 3-5 days at a 1:10 dilution.
Background: Cellular ATP, detected with luciferase, serves as a proxy for viable cell number.

In assay [2] the test system is A2780 cells. Kind of assay: Cell Viability Assay (ATPlite 1step), A2780. The settings on record: Homo sapiens, 72 hours; for percent inhibition of cell viability at 4 µM: A2780, 4 uM compound, read-out: Cell Viability % inhibition A2780 (4 uM Cpd); for percent inhibition of cell viability at 20 µM: A2780, 20 uM compound, read-out: Cell Viability % inhibition A2780 (20 uM Cpd). It is filed as cell-based. The procedure:
as §1, §2, §3

`Cc1ccc(C(=O)Nc2ccc(-c3cccc(N4CCN(C)CC4)c3)cn2)cn1` [Compound 37, N-{5-[3-(4-methylpiperazin-1-yl)phenyl]pyridin-2-yl}-6-methylpyridine-3-carboxamide]: in assay [1], the percent inhibition of cell viability at 4 µM is 35.4% and the percent inhibition of cell viability at 20 µM was 61%. For the same molecule, in assay [2], the percent inhibition of cell viability at 4 µM came out at 59.2% and the percent inhibition of cell viability at 20 µM was found to be 70.8%.

On to `Cc1ncc(C(=O)Nc2ccc(-c3cccc(N4CCN(C)CC4)c3)cn2)cn1` [Compound 35, N-{5-[3-(4-methylpiperazin-1-yl)phenyl]pyridin-2-yl}-2-methylpyrimidine-5-carboxamide], for which, in assay [1], the percent inhibition of cell viability at 4 µM came to 39.6% and the percent inhibition of cell viability at 20 µM came out at 58.8%. In assay [2], the percent inhibition of cell viability at 4 µM was 54.6% and the percent inhibition of cell viability at 20 µM came to 75.9%.

As for `CN1CCN(c2cccc(-c3ccc(NC(=O)c4cccnc4)nc3)c2)CC1` [Compound 36, N-{5-[3-(4-methylpiperazin-1-yl)phenyl]pyridin-2-yl}pyridine-3-carboxamide], in assay [1], the percent inhibition of cell viability at 4 µM is 24.3% and the percent inhibition of cell viability at 20 µM was 42.5%. Further, in assay [2], the percent inhibition of cell viability at 4 µM is 51.3% and the percent inhibition of cell viability at 20 µM is 55.5%.

Turning to `Cc1ccc(C(=O)Nc2ccc(-c3cccc(C4CC4)c3)cn2)cn1` [Compound 25, N-[5-(3-cyclopropylphenyl)pyridin-2-yl]-6-methylpyridine-3-carboxamide], the values for the percent inhibition of cell viability at 4 µM in assay [1] and in assay [2] were 50.3% and 70.6%, respectively. Also, the percent inhibition of cell viability at 20 µM in assay [1] came out at 63.4%; in assay [2], 81.1%.

With `O=C(Nc1ccc(-c2cccc(C3CCC3)c2)cn1)c1cncnc1` [Compound 45, N-[5-(3-cyclobutylphenyl)pyridin-2-yl]pyrimidine-5-carboxamide], in assay [1], the percent inhibition of cell viability at 4 µM was found to be 80.8% and the percent inhibition of cell viability at 20 µM was 83.3%. Besides, in assay [2], the percent inhibition of cell viability at 4 µM came to 87.6% and the percent inhibition of cell viability at 20 µM turned out to be 86.4%.

Turning to `O=C(Nc1ccc(-c2cccc(NC3CC3)c2)cn1)c1cccnc1` [Compound 32, N-{5-[3-(cyclopropylamino)phenyl]pyridin-2-yl}pyridine-3-carboxamide], in assay [1], the percent inhibition of cell viability at 4 µM was determined as 57.3% and the percent inhibition of cell viability at 20 µM is 57.6%. In assay [2], the percent inhibition of cell viability at 4 µM is 71.9% and the percent inhibition of cell viability at 20 µM was 77%.

Consider `COc1ccc(-c2ccc(NC(=O)c3cncnc3)nc2)cc1Cl` [Compound 22, N-[5-(3-chloro-4-methoxyphenyl)pyridin-2-yl]pyrimidine-5-carboxamide], for which, in assay [1], the percent inhibition of cell viability at 4 µM worked out at 20.7% and the percent inhibition of cell viability at 20 µM was determined as 11.5%. Besides, in assay [2], the percent inhibition of cell viability at 4 µM worked out at 69% and the percent inhibition of cell viability at 20 µM was found to be 67.9%.

Turning to `O=C(Nc1ccc(-c2cccc(C3COC3)c2)cn1)c1cncnc1` [Compound 41, N-{5-[3-(oxetan-3-yl)phenyl]pyridin-2-yl}pyrimidine-5-carboxamide], in assay [1], the percent inhibition of cell viability at 4 µM worked out at 74.5% and the percent inhibition of cell viability at 20 µM stood at 80.9%. Moreover, in assay [2], the percent inhibition of cell viability at 4 µM amounted to 74.7% and the percent inhibition of cell viability at 20 µM stood at 88.9%.

As to `O=C(Nc1ccc(-c2cccc(NC3CC3)c2)cn1)c1cncnc1` [Compound 30, N-{5-[3-(cyclopropylamino)phenyl]pyridin-2-yl}pyrimidine-5-carboxamide], in assay [1], the percent inhibition of cell viability at 4 µM stood at 63.4% and the percent inhibition of cell viability at 20 µM worked out at 71.9%. Further, in assay [2], the percent inhibition of cell viability at 4 µM is 77.4% and the percent inhibition of cell viability at 20 µM was found to be 78.7%.

As for `O=C(Nc1ccc(C2CC2)cn1)c1cncnc1` [Compound 6, N-(5-cyclopropylpyridin-2-yl)pyrimidine-5-carboxamide], in assay [1], the percent inhibition of cell viability at 4 µM amounted to 27% and the percent inhibition of cell viability at 20 µM is 29.9%. Further, in assay [2], the percent inhibition of cell viability at 4 µM amounted to 75.5% and the percent inhibition of cell viability at 20 µM came to 76.4%.
